Assay results as given in patent US10493087B2, “Sialylation-increasing therapies for diseases associated with oxidative stress” (THE UNITED STATES OF AMERICA, AS REPRESENTED BY THE …, priority 2015, dated 2019).

How the values were obtained:
GNE myopathy mice = conditions: cited from earlier work; for Prevention of muscle disease in GNE myopathy mice: prophylactic, Malicdan et al., Nature Med 2009
[1] = test system: GNE myopathy mice skeletal muscle tissue; conditions: cited from earlier work; for Hyposialylation of GNE myopathy mice skeletal muscle tissue: Niethamer et al., Mol Genet Metab 2012
[2] = test system: heart tissue of GNE −/− mice; assay: SNA lectin staining of heart sections (sialylation status); assay type: in vivo; conditions: ~1 year old GNE −/− mice treated since age 10 weeks with 2 g/kg/day; vs untreated GNE −/− mice
Procedure: Mouse hearts or skeletal muscle (gluteus) were harvested and fixed in 4% paraformaldehyde for 48 hours at room temperature, dehydrated in 70% ethanol at 4° C., and paraffin-embedded for sectioning (Histoserv, Gaithersburg, Md.). Tissue sections (5 um) were stained with a variety of lectins, as previously described for mouse kidneys and muscle (Kakani et al., Am J Pathol 2012; 180: 1431-40; Niethamer et al., Mol Genet Metab 2012; 107: 748-55) as well as for GNE myopathy patients' muscle (Leoyklang et al., Biomarkers Med 2014; 8: 641-52). Lectin histochemistry was performed with fluorescein isothiocyanate (FITC) labeled lectins WGA and VVA from EY Laboratories (San Mateo, Calif.) and SNA from Vector Laboratories (Burlingame, Calif.). Each slide was also stained with the nuclear dye DAPI. Fluorescence imaging of multiple sections of heart per slide was performed under a Zeiss 510 META confocal laser-scanning microscope. All fluorescent images represent collapsed stacks of confocal Z-sections, imaged at 63× magnification.

GNE Myopathy myotubes [3] = assay: Cell viability assay under pro-oxidants (propidium iodide/Hoechst co-staining); assay type: cell-based, mice; conditions: treated GNE Myopathy myotubes vs untreated; same concentrations of H2O2 or menadione
Procedure: (§1) Cell cultures and myotubes analysis: Myocytes from Gne^−/−hGNED176V-Tg mice and littermate controls were proliferated in DMEM containing 20% fetal bovine serum and 1% chicken embryo extracts in a 5% CO2 and induced to differentiation in a serum free medium, OPTIPRO™ SFM (Gibco), to make the cells hyposialylated. Where indicated, myotubes were treated with 5 mM NeuAc (Japan Food and Liquor Alliance) or 5 mM NAC (Sigma) for 72 h.
For the cell viability assay, myotubes were exposed to H2O2 for 24 h and to menadione for 6 h before staining. Nuclear staining with Hoechst 33342 (Thermo Scientific) and propidium iodide (PI) (Dojindo) was used for morphological assessment of apoptosis by fluorescence microscopy (Lee and Shacter, Journal of Biological Chemistry. 1999; 274:19792-19798). Minimum 200 nuclei were counted and cell viability was calculated by the exclusion of PI-stained nuclei from Hoechst 33342-stained nuclei.

GNE Myopathy myotubes [4] = assay: ROS generation under pro-oxidants (H2O2 or menadione), ΔDCF fluorescence; assay type: cell-based, mice; conditions: GNE Myopathy myotubes incubated before and during exposure to H2O2 and menadione; vs untreated; p<0.01
Procedure: as §1
To evaluate the ROS generation under pro-oxidants, myotubes cultured in each condition were loaded with 5 μM DCFH-DA for 1 h and recovered in the different concentrations of H2O2 or menadione-containing medium. After 30 min incubation in dark at 37° C., the microplate containing cells with pro-oxidants were placed in a plate reader and fluorescence was captured at every 5 min until it reached a plateau. Maximum fluorescence of each well was used for analysis.

GNE Myopathy myotubes [5] = assay: Intracellular ROS (DCF fluorescence) in cultured myotubes; assay type: cell-based, mice; conditions: GNE Myopathy myotubes treated with 5 mM for 72 h; mean±SEM; untreated 1113±30, littermate controls 115±15
Procedure: as §1
For the analysis of intracellular ROS, a popular fluorescence-based probe, 2′,7′-dichlorodihydrofluorescein diacetate (DCFH-DA) (Wang et al., Free Radical Biology and Medicine. 1999; 27:612-616; Halliwell and Whiteman, Br J Pharmacol. 2004; 142:231-255) was used. Cells were loaded with 5 μM DCFH-DA (Invitrogen) in PBS for an hour and recovered with phenol red-free DMEM (Gibco) for 30 min at 37° C. in a 5% CO2 incubator. Then the cells were placed in a CYTOFLUOR® Series 4000 multi-well fluorescence plate reader (PerSeptive Biosystems) with temperature maintained at 37° C. The excitation filter was set at 485 nm and the emission filter was set at 530 nm. The fluorescence from each well was captured and recorded.

Molecule	Prevention of muscle disease in GNE myopathy mice (GNE myopathy mice)	Hyposialylation of GNE myopathy mice skeletal muscle tissue [1]	Sialylation of glycans in heart tissue (SNA lectin staining) [2]	Relative cell viability under pro-oxidants (GNE Myopathy myotubes [3])	ΔDCF fluorescence increments on exposure to pro-oxidants (GNE Myopathy myotubes [4])	Mean DCF fluorescence (intracellular ROS generation) (GNE Myopathy myotubes [5]) [AFU]	Muscle force generation in treated mice (GNE myopathy mice; sialic acid supplement, Malicdan et al. 2009, 2008)	Sialylation status of skeletal muscle (SNA and VVA signal) ([1]; oral 1 g/kg/day for 12 weeks, gastrocnemius, adapted from Niethamer et al., 2012)
sialyllactose	prophylactically prevent muscle disease							
N[C@@H]1C(O)O[C@H](CO)[C@@H](O)[C@@H]1O (stereo partly shown) [mannosamine]		rescue hyposialylation						
CC(=O)N[C@H]1[C@H]([C@H](O)[C@H](O)CO)OC(O)(C(=O)O)C[C@@H]1O (stereo partly shown) [NeuAc, N-acetyl neuraminic acid]	prophylactically prevent muscle disease	rescue hyposialylation	significantly increased sialylation	more resistant	significantly decreased	349±19	increased in proportion to muscle fiber diameter	
CC(=O)NC1C(O)[C@H](O)C(CO)O[C@H]1O (stereo partly shown) [ManNAc, N-acetyl mannosamine]	prophylactically prevent muscle disease	rescue hyposialylation	significantly increased sialylation					restored the sialylation status back to the normal range
